“Also recorded” adds a separate entry of the source.
Legend:
[1] = system: P. aeruginosa ΔlasR mutant; assay: 72 hr anoxic survival assay with viable-cell counts and chlorate quantification, ΔlasR; format: cell-based, Pseudomonas aeruginosa; conditions: anoxic conditions, 1 mM chlorate
Protocol: (§1) Viable-cell plate counts were performed by serially diluting samples in phosphate-buffered saline (PBS). Dilutions spanning 7 orders of magnitude were plated on LB agar plates as 10-μl drips. Plates were incubated at 37° C. for ˜20 h, and incubation continued at room temperature (72 hr of total incubation) to allow for the growth of slow-growing colonies. Colonies were counted daily, and numbers of CFU per milliliter were calculated at the end of the incubation period. All viable-cell plate counting was carried out under aerobic conditions.

[2] = system: P. aeruginosa narG transposon mutant; assay: Anaerobic adaptation and survival, narG mutant; format: cell-based, Pseudomonas aeruginosa; conditions: 1 mM chlorate, 72 hr anoxic
Protocol: Overnight cultures were grown aerobically in LB with 40 mM KNO3, 100 mM L-arabinose, 50 μg ml^−1 gentamicin (for strains containing pMQ72-derived plasmids), and 50 μg ml^−1 kanamycin (for transposon insertion strains). Overnight cultures were pelleted, washed twice in LB with 100 mM L-arabinose to remove antibiotics, and resuspended in LB with 100 mM L-arabinose with or without 1 mM sodium chlorate at high cell density (OD500˜3). Two hundred microliters of resuspended culture was added to 96-well microtiter plates, and the plates were moved to the anaerobic glove box for cells to adapt to the anaerobic lifestyle. After a 72-hr incubation at 33° C., 96-well plates were removed from the anaerobic glove box and viable cells on plates were counted to calculate numbers of CFU per milliliter (described above). Percent survival was calculated for each strain by dividing CFU-permilliliter values from cultures containing chlorate by the average CFU-per-milliliter value from control cultures lacking chlorate and multiplying by 100. CFU-per-milliliter values of untreated control cultures were similar across strains, ranging from 1.0×10^9 to 2.2×10^9. The percentage of chlorate remaining after the 72-hr incubation was determined for each strain by dividing the final chlorate concentration in each culture by the initial chlorate concentration in the medium and multiplying by 100. […]

P. aeruginosa cultures [3] = assay: Bacterial-survival endpoint assay, viable-cell plate counts after 4 hr; format: cell-based, Pseudomonas aeruginosa; conditions: for lethality (viable-cell plate counts): anoxic conditions with 400 μM nitrate; for lethality (viable-cell plate counts) / sensitivity of cultures (viable-cell plate counts): 40 μg/ml tobramycin, 10 mM chlorate
Protocol: In aerobic-survival endpoint assays, overnight aerobic cultures were pelleted, washed twice with and resuspended in LB, and added to a 96-well microtiter plate at high cell density (optical density at 500 nm [OD500]˜3). Wells also contained sodium chlorate (final concentration, 10 mM), sodium chlorite (final concentration, 10 mM), tobramycin (final concentration, 40 μg ml^−1), or an equal volume (20 μl) of dH2O in untreated-control wells (200-μl total volume per well). Ninety-six-well plates were incubated at 37° C. with shaking at 250 rpm for 4 hr before viable cells on plates were counted. Anaerobic-survival endpoint assays were performed as described above, except […], […], and 96-well plates were incubated anaerobically at 33° C. for 4 hr and then removed from the glove box so that cultures could be serially diluted for viable-cell plate counts.
as §1
High-density P. aeruginosa cultures (˜10^9CFU ml^−1) were incubated with and without drugs under oxic conditions, […], or anoxic conditions without nitrate (no terminal electron acceptor) for 4 h, after which viability was determined (FIG. 1).

[4] = system: P. aeruginosa ΔlasR ΔnarGHJI strain; assay: Anaerobic adaptation and survival, ΔlasR ΔnarGHJI; format: cell-based, Pseudomonas aeruginosa; conditions: 1 mM chlorate, 72 hr anoxic
Protocol: The narGHJI genes were deleted in WT PA14 and the isogenic ΔlasR background. The region upstream of narG was amplified using primers 5′-[…]-3′ (SEQ ID NO: 11) and 5′-[…]-3′ (SEQ ID NO: 12), and the region downstream of narI was amplified using primers 5′-[…]-3′ (SEQ ID NO: 13) and 5′-[…]-3′ (SEQ ID NO: 14). These fragments were cloned into HindIII- and SacI-digested pMQ30 (89) via Gibson cloning. […]
Overnight cultures were grown aerobically in LB with 40 mM KNO3, 100 mM L-arabinose, 50 μg ml^−1 gentamicin (for strains containing pMQ72-derived plasmids), and 50 μg ml^−1 kanamycin (for transposon insertion strains). […] After a 72-hr incubation at 33° C., 96-well plates were removed from the anaerobic glove box and viable cells on plates were counted to calculate numbers of CFU per milliliter (described above). Percent survival was calculated for each strain by dividing CFU-permilliliter values from cultures containing chlorate by the average CFU-per-milliliter value from control cultures lacking chlorate and multiplying by 100. […] The percentage of chlorate remaining after the 72-hr incubation was determined for each strain by dividing the final chlorate concentration in each culture by the initial chlorate concentration in the medium and multiplying by 100.

P. aeruginosa cultures [5] = assay: 72 hr survival assay with viable-cell counts and chlorate quantification; format: cell-based, Pseudomonas aeruginosa; conditions: 1 mM chlorate
Protocol: as §1

[6] = Stability of concentrations in cell-free growth medium (ion chromatography); conditions: LB, 72 hr; 1 mM chlorate oxic, anoxic, anoxic with 40 mM nitrate; 40 mM nitrate anoxic plus 1 mM chlorate
Protocol: One millimolar chlorate concentrations were monitored in LB that was incubated for 72 hr under oxic conditions (filled circles), anoxic conditions (open circles), and anoxic conditions with 40 mM nitrate (open circles). Forty millimolar nitrate concentrations were monitored in LB medium that was incubated for 72 hr under anoxic conditions plus 1 mM chlorate (filled circles).
Culture samples were centrifuged at 16,000×g at room temperature for 10 min to pellet cells. Supernatants were diluted 1:10 in dH2O and added to 0.5-ml vials (Thermo Fisher Scientific catalog numbers 038010 and 038011). Nitrate and chlorate concentrations were quantified using the Dionex ICS 2000 ion chromatography system (Environmental Analysis Center, Caltech). Samples were loaded via a 15-μl sample loop onto an AS-19 separator (2- by 250-mm) column protected by an AG-19 guard (2 by 50 mm), maintained at 30° C. […] Anions were detected at neutral pH using an AERS 500 2-mm suppressor (Thermo Fisher Scientific) operated in eluent recycle mode with an applied current of 30 mA, and the conductivity detection cell was maintained at 35° C. […] Sodium chlorate and potassium nitrate standards were used to identify sample analytes via retention time and to generate standard curves for quantifying analyte concentrations.

[7] = system: P. aeruginosa aggregate biofilms; assay: Agar block biofilm assay (ABBA), LIVE/DEAD staining and confocal microscopy; format: cell-based, Pseudomonas aeruginosa; conditions: 6 hr treatment; for killing of cells in aggregates at depth (SYTO 9/propidium iodide) / killing of cells in middepth aggregates (SYTO 9/propidium iodide) / killing of cells in surface aggregates (SYTO 9/propidium iodide): 40 μg/ml tobramycin, 10 mM chlorate; for viability of cells at depths of >200 μm: tobramycin compared to untreated samples
Protocol: Overnight aerobic cultures were diluted to an OD500 of 0.001 in molten agar growth medium that had been cooled to 44° C. For all agar block biofilm assays (ABBAs), the growth medium used was LB with 5 mM KNO3 and 0.5% noble agar. A portion of the dilution (175 p.1) was added to chambered cover glass slides (Thermo Fisher Scientific number 155409), solidified at room temperature, and incubated at 37° C. for 12 hr in a humidified chamber. After incubation, cells that were not suspended in the agar were removed by adding 400 μl PBS to the top of each agar block and gently pipetting. Liquid was removed by inversion, and the wash was repeated. Aggregate cells were then treated by pipetting 125 μl of 24 mM sodium chlorate (final concentration, 10 mM), 125 μl of 96 μg ml^−1 tobramycin (final concentration, 40 μg ml^−1), or 62.5 μl of 48 mM chlorate and 62.5 μl of 192 μg ml^−1 tobramycin in combination (10 mM and 40μg m^−1 final concentrations, respectively) on the top of the agar block. All chlorate and tobramycin solutions were made in LB, and 125 μl LB was pipetted on the top of untreated control agar blocks. Treated and untreated samples were incubated at 37° C. in a humidified chamber, with shaking at 220 rpm for 6 hr. After incubation, samples were inverted to remove liquid, and cells were stained using a BacLight LIVE/DEAD bacterial viability staining kit (Thermo Fisher Scientific number L7012). One hundred twenty-five microliters of staining solution (1 μl 3.34 mM SYTO 9, 1 μl 20 mM propidium iodide, 123 μl dH2O) was added to each sample, and samples were incubated at room temperature on a VWR variable-speed rocker at the highest speed for 90 min before being imaged.
Before being imaged, ABBA samples were inverted to remove the staining solution, and 75 μl of a 1:50 dilution of 5-μm fluorescent beads (Spherotech; CFP-5045-2) was added to each sample. Excess liquid was removed by wicking, and beads were used to mark the surface of each sample. ABBA aggregates were imaged using a Leica TCS SPE confocal microscope with an ACS APO 0.3-numeric-aperture/10× objective. The agar surface was determined by visualizing fluorescent beads using a 405-nm solid-state laser for excitation, with data collected from 425 to 475 nm. LIVE/DEAD data were collected using a 488-nm solid-state laser for excitation, with emission collected at 510 to 550 nm and 610 to 650 nm for SYTO 9 and propidium iodide, respectively. Images were collected from three distinct locations near the center of each well as 500-μm z-stacks (50 slices total, 10-μm step size). z-stacks were collected in 8-bit mode with a scan format of 512 by 512 pixels (for quantification) or 1,024 by 1,024 pixels (for representative images) and line averaging of 2. Representative images were chosen from 6 independent experiments.
To quantify ABBA staining, images were loaded in Fiji (92), and background was subtracted from each image using the rolling ball method with a radius of 100 pixels. A threshold was applied to all images to exclude pixels with a value of <20, and total pixel intensity for both stains was determined for each image using the RawIntDen value in the Integrated Density measurement function. The proportion of sensitive cells was determined for each image (at each depth) by dividing the propidium iodide integrated density by the sum of the propidium iodide- and SYTO 9-integrated densities. ABBA staining quantifications are averages from 6 independent experiments (3 technical replicates per independent experiment).
In the ABBA system, an overnight culture is diluted into 0.5% molten agar medium, allowed to solidify, and incubated overnight at 37° C. Agar-suspended cells grow as aggregates, which develop into metabolically distinct populations at different spatial scales.

[8] = anoxic conditions with 40 mM nitrate
[9] = anoxic conditions without nitrate

Row | Compound | viable-cell counts in ΔlasR cultures lower than WT at end of experiment [1] [fold] | chlorate sensitivity (viable-cell counts) ([2]; narG mutant complemented with narGHJI genes) | chlorate sensitivity (viable-cell counts) ([2]; narG mutant) | lethality (viable-cell plate counts) (P. aeruginosa cultures [3]) | sensitivity of cultures (viable-cell plate counts) (P. aeruginosa cultures [3]; [8]) | sensitivity of cultures (viable-cell plate counts) (P. aeruginosa cultures [3]; [9]) | sensitivity of cultures (viable-cell plate counts) (P. aeruginosa cultures [3]; oxic conditions) | chlorate sensitivity (percent survival) [4] | chlorate-associated cell death (P. aeruginosa cultures [5]; anoxic cultures with 40 mM nitrate) | chlorate-associated cell death (P. aeruginosa cultures [5]; oxic cultures) | stability of concentration in cell-free growth medium (abiotic controls) [6] | killing of cells in aggregates at depth (SYTO 9/propidium iodide) [7] | killing of cells in middepth aggregates (SYTO 9/propidium iodide) [7] | killing of cells in surface aggregates (SYTO 9/propidium iodide) [7] | viability of cells at depths of >200 μm [7] | sensitivity of anoxic cultures compared with oxic cultures (P. aeruginosa cultures [3]; 10 mM chlorite)
1 | [O-][Cl+2]([O-])O [chlorate, sodium chlorate] | 100 | restores chlorate sensitivity | resistant | indistinguishable from that in cultures lacking nitrate | does not kill; also recorded: tolerant | sensitive; also recorded: kills | does not kill | chlorate tolerant | does not occur until nitrate is consumed | no chlorate-associated cell death | stable | killed | the exterior of middepth aggregates are chlorate tolerant, whereas aggregates at depth and the interior of middepth aggregates are killed | tolerant | most cells at depths of >200 μm are dead | 
2 | O=[N+]([O-])[O-].[K+] [nitrate, KNO3] |  |  |  |  |  |  |  |  |  |  | stable |  |  |  |  | 
3 | NC[C@H]1O[C@H](O[C@H]2[C@H](O)[C@@H](O[C@H]3O[C@H](CO)[C@@H](O)[C@H](N)[C@H]3O)[C@H](N)C[C@@H]2N)[C@H](N)C[C@@H]1O [tobramycin, reference compound] |  |  |  | indistinguishable from that in cultures lacking nitrate | sensitive | tolerant | sensitive |  |  |  |  | tolerant | cells on the exterior being killed and cells on the interior staying alive | killed | increased survival | 
4 | sodium chlorite [reference compound] |  |  |  |  |  |  |  |  |  |  |  |  |  |  |  | much more sensitive

From US20190142864A1, “METHODS AND SYSTEMS, FOR INTERFERING WITH VIABILITY OF BACTERIA AND RELATED ANTIMICROBIALS AND COMPOSITIONS” (CALIFORNIA INSTITUTE OF TECHNOLOGY, priority 2017, published 2019)
